Measured values from patent EP0326329B1, “Quinazoline derivatives useful as insecticides” (Dow AgroSciences LLC, priority 1988, dated 1989).

Key:
Assay type in all cases: in vivo
[1] = test system: southern armyworm (Spodopetra eridania Cramer); assay: Mite/insect screen, sprayed squash leaves (SAW); details: percent mortality; for mortality at 200 ppm / mortality at 400 ppm: Spodoptera eridania, read-out: SAW RESULTS %; for mortality at 200 ppm: spray rate 200 ppm; for mortality at 400 ppm: spray rate 400 ppm; for SAW RESULTS %: rate not given
Description: (§1) The compounds of Examples 1-203 were tested for miticidal and insecticidal activity in the following mite/insect screen.
(§2) Each test compound was formulated by dissolving the compound in acetone/alcohol (50:50) mixture containing 23 g of "TOXIMUL R" (sulfonate/nonionic emulsifier blend) and 13 g of "TOXIMUL S" (sulfonate/nonionic emulsifier blend) per liter. These mixtures were then diluted with water to give the indicated concentrations.
(§3) Other plants in the same treatment pot were left uninfested. The leaves were then sprayed with 5 ml of test solution using a DeVilbiss atomizing sprayer at 10 psi. Both surfaces of the leaves were covered until runoff, and then allowed to dry for one hour. Two uninfested leaves were then excised and placed into a Petri dish containing larval southern armyworm (Spodopetra eridania Cramer).
(§4) After standard exposure periods, percent mortality and phytotoxicity were evaluated. […]

[2] = test system: Botrytis cinerea (gray mold); assay: Greenhouse Test 1, foliar spray fungicide screen (GRAY MOLD), host grape berries; details: disease control rating, 400 ppm (+++ at 100 ppm)
[3] = test system: Southern corn rootworm (Diabrotica undecimpuctata howardi Barber); assay: Mite/insect screen, soil treatment (CRW); details: percent mortality; for mortality at 12 ppm / mortality at 24 ppm: Diabrotica, soil treatment, read-out: CRW RESULTS %; for mortality at 12 ppm: CRW rate 12.00 ppm; for mortality at 24 ppm: CRW rate 24.00 ppm; for CRW RESULTS %: rate not given
Description: as §1, §2
Activity on Southern corn rootworm (Diabrotica undecimpuctata howardi Barber) was evaluated by adding two ml of tap water, a presoaked corn seed, and 15 g of dry sandy soil to a one ounce plastic container. The soil was treated with 1 mL of test solution containing a pre-determined concentration of test compound. After six to 12 hours of drying, five 2-3 instar corn rootworm larvae were added to the individual cups, which were then capped and held at 23°C.
as §4

[4] = test system: Pyricularia oryzae (rice blast); details: disease control rating, foliar spray, host rice; 400 ppm (+++ at 100 ppm)
[5] = test system: melon aphids (Aphis gossypii Glover); assay: Mite/insect screen, sprayed squash cotyledons (MA); details: percent mortality; for mortality at 200 ppm / mortality at 400 ppm: Aphis gossypii, read-out: MA RESULTS %; for mortality at 200 ppm: spray rate 200 ppm; for mortality at 400 ppm: spray rate 400 ppm; for MA RESULTS %: rate not given
Description: as §1, §2, §3, §4

[6] = test system: Puccinia recondita tritici (leaf rust); assay: Greenhouse Test 1, foliar spray fungicide screen (LEAF RUST), host wheat; details: disease control rating, 400 ppm (+++ at 100 ppm)
[7] = test system: Pseudoperonospora cubensis (downy mildew); assay: Greenhouse Test 1, foliar spray fungicide screen (DOWN MDEW), host squash; details: disease control rating, 400 ppm (+++ at 100 ppm)
[8] = test system: Erysiphe graminis tritici (powdery mildew); assay: Greenhouse Test 1, foliar spray fungicide screen (POWD MDEW), host wheat; details: disease control rating, 400 ppm (+++ at 100 ppm)
[9] = test system: Twospotted spider mites (Tetranychus urticae Koch); assay: Mite/insect screen, sprayed squash cotyledons (SM); details: percent mortality; for mortality at 200 ppm / mortality at 400 ppm: Tetranychus urticae, read-out: SM RESULTS %; for mortality at 200 ppm: spray rate 200 ppm; for mortality at 400 ppm: spray rate 400 ppm; for SM RESULTS %: rate not given
Description: as §1, §2, §3, §4

Row | Structure (SMILES) | mortality at 200 ppm [1] | mortality at 400 ppm [1] | GRAY MOLD [2] | mortality at 12 ppm [3] | mortality at 24 ppm [3] | RICE BLAST [4] | mortality at 200 ppm [5] | mortality at 400 ppm [5] | LEAF RUST [6] | DOWN MDEW [7] | POWD MDEW [8] | mortality at 200 ppm [9] | mortality at 400 ppm [9] | SAW RESULTS % [1] | CRW RESULTS % [3] | MA RESULTS % [5] | SM RESULTS % [9]
1 | CC(C)c1ccc(CCNc2ncnc3cc(Cl)ccc23)cc1 [Example 40, 7-chloro-N-[2-[4-(i-propyl)phenyl]ethyl]-4-quinazolinamine] | 40% | 0% | - (- = 0-19% control at 400 ppm) | 0% | 0% | ++ (++ = 90-100% control at 400 ppm) | 20% | 0% | +++ (+++ = 90-100% control at 100 ppm) | +++ (+++ = 90-100% control at 100 ppm) | +++ (+++ = 90-100% control at 100 ppm) | 80% | 90% | – | – | – | –
2 | Clc1cccc(CCOc2ncnc3ccccc23)c1 [Example 41, 4-[2-(3-chlorophenyl)ethoxy]quinazoline] | – | 0% | - (- = 0-19% control at 400 ppm) | – | 0% | ++ (++ = 90-100% control at 400 ppm) | – | 80% | +++ (+++ = 90-100% control at 100 ppm) | +++ (+++ = 90-100% control at 100 ppm) | +++ (+++ = 90-100% control at 100 ppm) | – | 80% | 0% | 0% | 100% | 0%
3 | c1ccc(CCCCOc2ncnc3ccccc23)cc1 [Example 42, 4-(4-phenylbutoxy)quinazoline] | 0% | 50% | - (- = 0-19% control at 400 ppm) | 0% | 0% | +++ (+++ = 90-100% control at 100 ppm) | 100% | 100% | +++ (+++ = 90-100% control at 100 ppm) | +++ (+++ = 90-100% control at 100 ppm) | +++ (+++ = 90-100% control at 100 ppm) | 100% | 100% | – | – | – | –
4 | Cc1cc(C)c(CCOc2ncnc3ccccc23)c(C)c1 [Example 43, 4-[2-(2,4,6-trimethylphenyl)ethoxy]quinazoline] | – | 0% | - (- = 0-19% control at 400 ppm) | – | 0% | ++ (++ = 90-100% control at 400 ppm) | – | 0% | ++ (++ = 90-100% control at 400 ppm) | ++ (++ = 90-100% control at 400 ppm) | ++ (++ = 90-100% control at 400 ppm) | – | 0% | – | – | – | –
5 | FC(F)(F)Oc1ccc2ncnc(NCCc3ccc(Oc4ccccc4)cc3)c2c1 [Example 44, 6-(trifluoromethoxy)-N-[2-(4-phenoxyphenyl)ethyl]-4-quinazolinamine] | – | 0% | - (- = 0-19% control at 400 ppm) | – | 0% | - (- = 0-19% control at 400 ppm) | – | 0% | - (- = 0-19% control at 400 ppm) | + (+ = 20-89% control at 400 ppm) | - (- = 0-19% control at 400 ppm) | – | 0% | – | – | – | –
6 | c1ccc(Oc2ccccc2CCNc2ncnc3ccccc23)cc1 [Example 45, N-[2-(2-phenoxyphenyl)ethyl]-4-quinazolinamine] | – | 0% | - (- = 0-19% control at 400 ppm) | – | 0% | - (- = 0-19% control at 400 ppm) | – | 0% | +++ (+++ = 90-100% control at 100 ppm) | + (+ = 20-89% control at 400 ppm) | + (+ = 20-89% control at 400 ppm) | – | 0% | – | – | – | –
7 | FC(F)(F)c1ccccc1CCOc1ncnc2ccccc12 [Example 47, 4-[2-[2-(trifluoromethyl)phenyl]ethoxy]quinazoline] | – | 0% | - (- = 0-19% control at 400 ppm) | – | 0% | +++ (+++ = 90-100% control at 100 ppm) | – | 0% | +++ (+++ = 90-100% control at 100 ppm) | +++ (+++ = 90-100% control at 100 ppm) | +++ (+++ = 90-100% control at 100 ppm) | – | 0% | – | – | – | –
8 | Fc1ccccc1CCOc1ncnc2ccccc12 [Example 48, 4-[2-(2-fluorophenyl)ethoxy]quinazoline] | – | 0% | - (- = 0-19% control at 400 ppm) | – | 0% | + (+ = 20-89% control at 400 ppm) | – | 100% | +++ (+++ = 90-100% control at 100 ppm) | ++ (++ = 90-100% control at 400 ppm) | +++ (+++ = 90-100% control at 100 ppm) | – | 90% | – | – | – | –
9 | COc1ccc(CCOc2ncnc3ccccc23)cc1 [Example 49, 4-[2-(4-methoxyphenyl)ethoxy]quinazoline] | – | 0% | - (- = 0-19% control at 400 ppm) | – | 0% | +++ (+++ = 90-100% control at 100 ppm) | – | 0% | +++ (+++ = 90-100% control at 100 ppm) | +++ (+++ = 90-100% control at 100 ppm) | +++ (+++ = 90-100% control at 100 ppm) | – | 80% | 0% | 0% | 100% | 90%
10 | FC(F)(F)c1cccc(CCOc2ncnc3ccccc23)c1 [Example 51, 4-[2-[3-(trifluoromethyl)phenyl]ethoxy]quinazoline] | – | 0% | - (- = 0-19% control at 400 ppm) | – | 0% | +++ (+++ = 90-100% control at 100 ppm) | – | 0% | ++ (++ = 90-100% control at 400 ppm) | +++ (+++ = 90-100% control at 100 ppm) | ++ (++ = 90-100% control at 400 ppm) | – | 0% | – | – | – | –
11 | Fc1cccc2c(OCCc3ccc(Cl)cc3)ncnc12 [Example 55, 4-[2-(4-chlorophenyl)ethoxy]-8-fluoroquinazoline] | 100% | 0% | - (- = 0-19% control at 400 ppm) | 0% | 0% | +++ (+++ = 90-100% control at 100 ppm) | 100% | 0% | +++ (+++ = 90-100% control at 100 ppm) | +++ (+++ = 90-100% control at 100 ppm) | +++ (+++ = 90-100% control at 100 ppm) | 100% | 0% | – | – | – | –
